Measurements from US20110130365A1, “Fluorinated Heteroaryls” (priority 2008, published 2011).
Structures can show the parent of a compound that is named as a salt.

Biological target: T1, Full-length glucokinase (beta cell isoform) (Homo sapiens, UniProt P35557)
T1 construct: Full-length glucokinase (beta cell isoform) was His-tagged at N-terminus; His tag (N); made in house
T1 sequence (P35557 1-465): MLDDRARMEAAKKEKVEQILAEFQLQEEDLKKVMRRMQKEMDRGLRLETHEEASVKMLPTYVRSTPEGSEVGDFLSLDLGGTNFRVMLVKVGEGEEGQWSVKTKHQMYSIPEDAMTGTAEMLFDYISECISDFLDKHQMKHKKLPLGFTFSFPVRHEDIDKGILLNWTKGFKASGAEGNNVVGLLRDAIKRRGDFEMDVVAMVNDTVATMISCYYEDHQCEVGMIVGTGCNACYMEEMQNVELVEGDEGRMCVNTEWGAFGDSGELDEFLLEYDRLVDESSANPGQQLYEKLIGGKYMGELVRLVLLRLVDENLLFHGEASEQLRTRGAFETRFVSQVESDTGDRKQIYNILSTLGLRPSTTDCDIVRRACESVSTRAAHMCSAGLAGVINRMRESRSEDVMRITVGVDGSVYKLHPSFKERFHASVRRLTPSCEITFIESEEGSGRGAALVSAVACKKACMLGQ
Test: Glucokinase activation assay (PK/LDH-coupled, NADH depletion at 340 nm)
Type: biochemical
Details: 5 mM glucose, 2.5 mM ATP, pH 7.1, room temperature, values given as a range where N>1; for Emax: fitted % max activation, read-out: Maximum Activation
Protocol: Full-length glucokinase (beta cell isoform) was His-tagged at N-terminus and purified by a Ni column followed by size exclusion chromatography. A 320 mL column was packed in house using Pharmacia Superdex75 preparation grade resin. Glucose was obtained from Calbiochem (San Diego, Calif.) and other reagents were purchased from Sigma (St. Louis, Mo.).
All assays were performed in a Corning 384-well plate using Spectramax PLUS spectrophotometer (Molecular Devices, Sunnyvale, Calif.) at room temperature. The final assay volume was 40 μL. The buffer conditions used in this assay were as follows: 50 mM HEPES, 5 mM glucose, 2.5 mM ATP, 3.5 mM MgCl2, 0.7 mM NADH, 2 mM dithiothreitol, 1 Unit/mL PK/LDH, 0.2 mM phosphoenolpyruvate, and 25 mM KCl. The buffer pH was 7.1. The test compound in DMSO solution was added to the buffer and mixed by a plate shaker for 7.5 minutes. The final concentration of DMSO introduced into the assay was 0.25%.
Glucokinase was added to the buffer mixture to initiate the reaction in the presence and absence of compound. The reaction was monitored by absorbance at 340 nm due to the depletion of NADH. The initial reaction velocity was measured by the slope of a linear time course of 0-300 seconds. The percentage of activation was calculated by the following equation:
% Activation=(Va/Vo−1)×100;
wherein each of Va and Vo is defined as the initial reaction velocity in the presence and absence of the tested compound, respectively.
To determine the EC50 (half maximal effective concentration) and % maximum activation, compounds were serially diluted in DMSO by 3-fold. The GK activities were measured as a function of compound concentrations. The data were fitted to the equation below to obtain the EC50 and % max activation values:
Va/Vo=1+(% max activation/100)/(1+EC50/compound concentration)

SMILES | Emax | EC50
O=C(O)Cc1cnc(NC(=O)[C@H](CC2CCCC2)n2cc(C(F)(F)F)ccc2=O)s1 [Example 26, (S)-2-(2-(3-cyclopentyl-2-(2-oxo-5-(trifluoromethyl)pyridin-1(2H)-yl)propanamido)thiazol-5-yl)acetic acid mono acetic acid salt] | 116% | 11.1 µM
O=C(O)c1ccc(NC(=O)[C@H](CC2CCCC2)n2cc(C(F)(F)F)ccc2=O)nc1 [Example 28, (S)-6-(3-cyclopentyl-2-(2-oxo-5-(trifluoromethyl)pyridin-1(2H)-yl)propanamido)nicotinic acid mono acetic acid salt] | 147% | 0.5 µM
CCOP(=O)(Cc1cnc(NC(=O)[C@H](CC2CCCC2)n2cc(C(F)(F)F)ccc2=O)cn1)OCC [Example 29, (S)-diethyl (5-(3-cyclopentyl-2-(2-oxo-5-(trifluoromethyl)pyridin-1(2H)-yl)propanamido)-pyrazin-2-yl)methylphosphonate] | 141% | 5.7 µM
CC(C)(O)Cn1ccc(NC(=O)[C@H](CC2CCCC2)n2cc(C(F)(F)F)ccc2=O)n1 [Example 31, (S)-3-cyclopentyl-N-(1-(2-hydroxy-2-methylpropyl)-1H-pyrazol-3-yl)-2-(2-oxo-5-(trifluoromethyl)pyridin-1(2H)-yl)propanamide] | 172 to 194% | 1.1 to 2 µM
O=C(O)c1ccc(NC(=O)[C@H](CC2CCCC2)n2ccc(C(F)(F)F)cc2=O)nc1 [Example 34, (S)-6-(3-cyclopentyl-2-(2-oxo-4-(trifluoromethyl)pyridin-1(2H)-yl)propanamido)nicotinic acid] | 100 to 102% | 1.8 to 2.7 µM
Cc1ccc(NC(=O)[C@H](CC2CCCC2)n2cnc(C(F)F)cc2=O)nc1 [Example 36, (S)-3-cyclopentyl-2-(4-(difluoromethyl)-6-oxopyrimidin-1(6H)-yl)-N-(5-methylpyridin-2-yl)propanamide] | 106% | 8.1 µM
O=C(O)c1ccc(NC(=O)[C@H](CC2CCCCC2)n2ccc(C(F)(F)F)cc2=O)nc1 [Example 37, (S)-6-(3-cyclohexyl-2-(2-oxo-4-(trifluoromethyl)pyridin-1(2H)-yl)propanamido)nicotinic acid] | 92 to 101% | 1.5 to 3.5 µM
Cc1ccc(NC(=O)[C@H](CC2CCOCC2)n2cc(C(F)(F)F)ccc2=O)nc1 [Example 38, (S)—N-(5-methylpyridin-2-yl)-2-(2-oxo-5-(trifluoromethyl)pyridin-1(2H)-yl)-3-(tetrahydro-2H-pyran-4-yl)propanamide] | 57 to 70% | 2.9 to 4.6 µM
Cc1cnc(NC(=O)[C@H](CC2CCOCC2)n2cc(C(F)(F)F)ccc2=O)cn1 [Example 39, (S)—N-(5-methylpyrazin-2-yl)-2-(2-oxo-5-(trifluoromethyl)pyridin-1(2H)-yl)-3-(tetrahydro-2H-pyran-4-yl)propanamide] |  | > 100 µM
Cc1ccc(NC(=O)[C@H](CC2CCOCC2)n2ccc(C(F)(F)F)cc2=O)nc1 [Example 41, (S)—N-(5-methylpyridin-2-yl)-2-(2-oxo-4-(trifluoromethyl)pyridin-1(2H)-yl)-3-(tetrahydro-2H-pyran-4-yl)propanamide] |  | > 100 µM
Cc1cnc(NC(=O)[C@H](CC2CCOCC2)n2ccc(C(F)(F)F)cc2=O)cn1 [Example 42, (S)—N-(5-methylpyrazin-2-yl)-2-(2-oxo-4-(trifluoromethyl)pyridin-1(2H)-yl)-3-(tetrahydro-2H-pyran-4-yl)propanamide] |  | > 100 µM

The remaining lines, values ahead:

Emax | EC50 | SMILES
84% | 2.9 µM | CCOC(=O)Cc1cnc(NC(=O)[C@H](CC2CCCC2)n2cc(C(F)(F)F)ccc2=O)s1 [Example 25, (S)-ethyl 2-(2-(3-cyclopentyl-2-(2-oxo-5-(trifluoromethyl)pyridin-1(2H)-yl)propanamido)thiazol-5-yl)acetate]
84% | 0.2 µM | COC(=O)c1ccc(NC(=O)[C@H](CC2CCCC2)n2cc(C(F)(F)F)ccc2=O)nc1 [Example 27, (S)-methyl 6-(3-cyclopentyl-2-(2-oxo-5-(trifluoromethyl)pyridin-1(2H)-yl)propanamido)nicotinate]
58% | 4.2 µM | O=C(Nc1ccn(Cc2ccccc2)n1)[C@H](CC1CCCC1)n1ccc(C(F)(F)F)cc1=O [Example 30, (S)—N-(1-benzyl-1H-pyrazol-3-yl)-3-cyclopentyl-2-(2-oxo-4-(trifluoromethyl)pyridin-1(2H)-yl)propanamide]
87 to 90% | 6.9 to 7.5 µM | CC(C)(O)Cn1ccc(NC(=O)[C@H](CC2CCCC2)n2ccc(C(F)(F)F)cc2=O)n1 [Example 32, (S)-3-cyclopentyl-N-(1-(2-hydroxy-2-methylpropyl)-1H-pyrazol-3-yl)-2-(2-oxo-4-(trifluoromethyl)pyridin-1(2H)-yl)propanamide]
85 to 159% | 0.3 to 0.5 µM | O=C(Nc1ccc(CO)cn1)[C@H](CC1CCCC1)n1cc(C(F)(F)F)ccc1=O [Example 33, (S)-3-cyclopentyl-N-(5-(hydroxymethyl)pyridin-2-yl)-2-(2-oxo-5-(trifluoromethyl)pyridin-1(2H)-yl)propanamide]
144% | 45 µM | Cc1cnc(NC(=O)[C@H](CC2CCCC2)n2cnc(C(F)F)cc2=O)cn1 [Example 35, (S)-3-cyclopentyl-2-(4-(difluoromethyl)-6-oxopyrimidin-1(6H)-yl)-N-(5-methylpyrazin-2-yl)propanamide]
121% | 54 µM | Cn1ccc(NC(=O)[C@H](CC2CCOCC2)n2cc(C(F)(F)F)ccc2=O)n1 [Example 40, (S)—N-(1-methyl-1H-pyrazol-3-yl)-2-(2-oxo-5-(trifluoromethyl)pyridin-1(2H)-yl)-3-(tetrahydro-2H-pyran-4-yl)propanamide]
 | > 100 µM | Cn1ccc(NC(=O)[C@H](CC2CCOCC2)n2ccc(C(F)(F)F)cc2=O)n1 [Example 43, (S)—N-(1-methyl-1H-pyrazol-3-yl)-2-(2-oxo-4-(trifluoromethyl)pyridin-1(2H)-yl)-3-(tetrahydro-2H-pyran-4-yl)propanamide]
